Data published in ChEMBL document CHEMBL5104190, “Design, Synthesis, Biological Activity, and Structural Analysis of Novel Des-C-Ring and Aromatic-D-Ring Analogues of 1α,25-Dihydroxyvitamin D3” (J Med Chem, 2022).
The source made the active and inactive calls. The rule behind the calls is not given here.

How the values were obtained:
[1] = target: T1, CYP24A1 (Homo sapiens, UniProt Q07973); test: Induction of CYP24A1 (unknown orgin) transcriptional activity trasfected in human MCF7 cells at 0.1 to 1000 nM incuabted for 48 hrs by luciferase reporter gene assay relative to (1R,3S)-5-(2-((1R,3aS,7aR)-1-((R)-6-hydroxy-6-methylheptan-2-yl)-7a-methyloctahydro-4H-inden-4-ylidene)ethylidene)-4-methylenecyclohexane-1,3-diol; format: ADME, cell-based; details: MCF7 cells transfected with CYP24A1 luciferase reporter, dose 0.1-1000 nM
T1 sequence (Q07973 whole entry): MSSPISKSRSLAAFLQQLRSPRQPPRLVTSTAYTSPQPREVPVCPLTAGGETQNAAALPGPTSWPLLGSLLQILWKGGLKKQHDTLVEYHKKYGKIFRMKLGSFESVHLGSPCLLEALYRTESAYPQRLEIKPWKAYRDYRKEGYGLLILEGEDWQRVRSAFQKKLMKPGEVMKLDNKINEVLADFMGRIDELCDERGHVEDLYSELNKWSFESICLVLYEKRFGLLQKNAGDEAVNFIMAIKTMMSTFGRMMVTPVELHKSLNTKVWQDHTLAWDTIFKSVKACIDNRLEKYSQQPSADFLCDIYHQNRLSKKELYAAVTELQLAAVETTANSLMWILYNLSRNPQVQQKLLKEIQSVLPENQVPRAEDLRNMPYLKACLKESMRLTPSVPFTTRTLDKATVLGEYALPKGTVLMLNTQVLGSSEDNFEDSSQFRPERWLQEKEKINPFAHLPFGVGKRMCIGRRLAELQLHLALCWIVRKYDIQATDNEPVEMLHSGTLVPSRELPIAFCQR

[2] = target: T2, Vitamin D3 receptor (Homo sapiens, UniProt P11473); test: Competitive binding affinity to His-tagged human VDR LBD (156 to 453 residues) expressed in Escherichia coli […] (DE3) cells in presence of 1,25D3 by fluorescent polarization assay
T2 sequence (P11473 whole entry): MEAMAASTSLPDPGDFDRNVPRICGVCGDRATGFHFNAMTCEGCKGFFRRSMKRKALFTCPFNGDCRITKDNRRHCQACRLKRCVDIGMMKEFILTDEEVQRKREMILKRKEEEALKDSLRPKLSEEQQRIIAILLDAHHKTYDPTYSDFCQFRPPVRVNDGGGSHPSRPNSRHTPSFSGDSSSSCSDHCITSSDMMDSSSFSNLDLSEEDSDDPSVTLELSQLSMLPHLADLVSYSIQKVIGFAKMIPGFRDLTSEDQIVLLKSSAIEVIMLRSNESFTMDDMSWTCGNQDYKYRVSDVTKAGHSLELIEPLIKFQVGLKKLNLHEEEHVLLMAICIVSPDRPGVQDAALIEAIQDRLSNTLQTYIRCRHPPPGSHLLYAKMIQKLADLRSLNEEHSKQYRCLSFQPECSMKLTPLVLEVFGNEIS

[3] = target: T3, Vitamin D3 receptor (Homo sapiens) (UniProt P11473); test: Competitive binding affinity to His-tagged human VDR LBD (156 to 453 residues) expressed in Escherichia coli […] (DE3) cells at 0.1 to 100 nM in presence of 1,25D3 by fluorescent polarization assay relative to (1R,3S)-5-(2-((1R,3aS,7aR)-1-((R)-6-hydroxy-6-methylheptan-2-yl)-7a-methyloctahydro-4H-inden-4-ylidene)ethylidene)-4-methylenecyclohexane-1,3-diol; details: dose 0.1-100 nM
T3 sequence (whole entry): T2 sequence (P11473 whole entry)

[4] = system: MCF7; test: Increase in E-cadherin expression level in human MCF7 cells at 0.1 to 100 nM measured for 48 hrs by Western blot analysis; format: functional, cell-based; details: dose 0.1-100 nM

C=C1/C(=C\C=C(/CCCCCC(C)(C)O)c2cccc(CCCCCC(C)(C)O)c2)C[C@@H](O)C[C@@H]1O
Emax at 48 h [1]: 54%
IC50 [2]: 27.3 nM
Emax [3]: 4.5%
Activity [4]: Active

C=C1/C(=C\C=C\c2cc(CCCCCC(C)(C)O)cc(CCCCCC(C)(C)O)c2)C[C@@H](O)C[C@@H]1O
Emax at 48 h [1]: 102%
IC50 [2]: 15.7 nM
Emax [3]: 7.9%
Activity [4]: Active
